Data from PubChem BioAssay (NCI).
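A five-concentration, 48-hour dose response in 96-well plates underlies each endpoint, interpolated linearly between surrounding concentrations. TGI denotes the concentration required for complete inhibition of growth.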

Key:
Test in all cases: DTP human tumour cell line panel, 48 h
MDA-MB-435 = system: MDA-MB-435
NCI-H522 lung = system: NCI-H522 lung
OVCAR-4 ovarian = system: OVCAR-4 ovarian
SK-MEL-28 melanoma = system: SK-MEL-28 melanoma
MCF7 breast = system: MCF7 breast
BT-549 breast = system: BT-549 breast
M14 melanoma = system: M14 melanoma
TK-10 renal = system: TK-10 renal
DU-145 prostate = system: DU-145 prostate
NCI-H460 lung = system: NCI-H460 lung
IGROV1 ovarian = system: IGROV1 ovarian

Row | Compound | TGI (MDA-MB-435) [µM] | TGI (NCI-H522 lung) [µM] | TGI (OVCAR-4 ovarian) [µM] | TGI (SK-MEL-28 melanoma) [µM] | TGI (MCF7 breast) [µM] | TGI (BT-549 breast) [µM] | TGI (M14 melanoma) [µM] | TGI (TK-10 renal) [µM] | TGI (DU-145 prostate) [µM] | TGI (NCI-H460 lung) [µM] | TGI (IGROV1 ovarian) [µM]
1 | Cc1cc(Cc2cc(C)c(N)cc2N)c(N)cc1N | > 100 | > 100 | > 100 | > 100 | > 100 | > 100 | > 100 | > 100 | > 100 | > 100 | > 100
2 | COC(=O)c1ccccc1CC1Cc2ccc3c(c2C1=O)CCCC3 (stereo unspecified) | > 100 | > 100 | > 79.4 | > 100 | > 100 | > 100 | > 100 | > 100 | > 100 | > 100 | > 100
3 | CC(C)(C)N1CSC(=S)N(Cc2ccco2)C1 | 13.4 | 12 | 26.7 | 10.8 | 14.3 | 9.62 | 11.8 | 11.6 | 15.5 | 22.5 | 12.6
4 | CCCCCCCCCCCCCCNC(=O)CCC(NC(=O)c1ccc(N(C)Cc2cnc3nc(N)nc(N)c3n2)cc1)C(=O)NCCCCCCCCCCCCCC (stereo unspecified) | 25.6 | 32.4 | 40.9 | 40.7 | 29.2 | 41.1 | > 40.4 | > 86.2 | > 100 | 13.1 | 27.3
5 | O=c1c2cc([N+](=O)[O-])cnc2sn1-c1ccc([N+](=O)[O-])cc1 | > 100 | 25.7 | 85.7 | > 100 | > 100 | 93.9 | > 100 | > 100 | > 100 | > 100 | > 100
6 | O=c1[nH]c(Nc2cccc(CC(F)(F)F)c2)nc2nc[nH]c12 | > 100 | > 100 | > 100 | > 100 | > 100 | > 100 | > 100 | > 100 | > 100 | > 100 | > 100
7 | Cc1ccccc1C(=O)N1CCc2c([nH]c3ccccc23)C1 | 37.3 | 46.1 | 74.9 | > 100 | 51.8 | 42.8 | 45.4 | 80.2 | 84.5 | 53.4 | > 100
8 | COC(=O)C([C@H](NC1(c2ccccc2)c2ccccc2-c2ccccc21)C(=O)OC)N(NC(=O)OCc1ccccc1)C(=O)OCc1ccccc1 (mixture of isomers) | > 100 | > 100 | > 100 | > 100 | > 100 | > 100 | > 100 | > 100 | > 100 | > 100 | > 100
9 | C[C@@H]1CC[C@]2(C(=O)O)CC[C@]3(C)C(=CC[C@@H]4[C@@]5(C)CC[C@H](O)C(C)(C)[C@@H]5CC[C@]43C)[C@@H]2[C@]1(C)O | 28.8 | 27.9 | 30.5 | 26.9 | 35.7 | 28.2 | 8.1 | 27.5 | 21.1 | 17.3 | 30.7
10 | CC(=O)NC(Cc1ccc(O)cc1)C(=O)O (stereo unspecified) | > 100 | > 100 | > 100 | > 100 | > 100 | > 100 | > 100 | > 100 | > 100 | > 100 | > 100
11 | CCOC(=O)C(SCCO)C(C(=O)OCC)n1cnc2c(=O)[nH]c(NC(C)=O)nc21 (stereo unspecified) | > 100 | > 100 | > 100 | > 100 | > 100 | > 100 | > 100 | > 100 | > 100 | > 100 | > 100
12 | COc1cc(Br)cc2cc(-c3cn4ccsc4n3)c(=O)oc12 | 51.2 | > 100 | > 100 | > 100 | 38.6 | 50.7 | > 100 | > 100 | > 100 | > 100 | > 100
13 | Cc1cn2c(/C=N/N=C(N)N)c(-c3cccc([N+](=O)[O-])c3)nc2s1 | 3.21 | 3.91 | 1.07 | 2.55 | 2.12 | 3.3 | 4.36 | 3.92 | 3.27 | 3.78 | 19.7
14 | CC1(C)N=[N+]([O-])C1(C)C | > 100 | > 100 | > 100 | > 100 | > 100 | > 100 | > 100 | > 100 | > 100 | > 100 | > 100
15 | Nn1c(-c2ccccc2)nn(C(=O)c2ccccc2)c1=O | > 100 | > 100 | > 100 | > 100 | > 100 | > 100 | > 100 | > 100 | > 100 | > 100 | > 100
16 | COc1ccc(C2CC(c3c(O)ccc4ccccc34)=NN2C(C)=O)cc1OC (stereo unspecified) | 69.2 | > 100 | > 100 | > 100 | 71.5 | 43.9 | 69.4 | > 100 | 92 | 93.5 | > 100
